Test results published in the CheMixHub viscosity set.
Where “and” joins values, the source holds several entries; their conditions need not be identical. Identical values can stand only once. ± gives the uncertainty stated by the source.

Experiment: xn = mol fraction of the nth substance listed

CCCCCCCCCBr + ClC(Cl)(Cl)Cl
101 kPa
Details	viscosity [mPa·s]
297.75 K, x1 = 0.0486	0.9597 ± 0.021
297.75 K, x1 = 0.0978	1.013 ± 0.022
297.75 K, x1 = 0.1959	1.12 ± 0.024
297.75 K, x1 = 0.3924	1.327 ± 0.029
297.75 K, x1 = 0.5939	1.527 ± 0.033
297.75 K, x1 = 0.7974	1.744 ± 0.038
303.55 K, x1 = 0.0959	0.926 ± 0.02
303.55 K, x1 = 0.2498	1.086 ± 0.023
303.55 K, x1 = 0.3966	1.22 ± 0.026
303.55 K, x1 = 0.5928	1.381 ± 0.03
303.55 K, x1 = 0.7755	1.526 ± 0.033
313.65 K, x1 = 0.0515	0.7651 ± 0.017
313.65 K, x1 = 0.0985	0.8039 ± 0.017
313.65 K, x1 = 0.1952	0.8852 ± 0.019
313.65 K, x1 = 0.3592	1.028 ± 0.022
313.65 K, x1 = 0.5926	1.189 ± 0.026
313.65 K, x1 = 0.7767	1.301 ± 0.028

c1cscn1 + ClC(Cl)(Cl)Cl
298.15 K, 101 kPa
Details	viscosity [mPa·s]
x1 = 0.1198	0.9186 ± 0.024
x1 = 0.2066	0.9327 ± 0.025
x1 = 0.2139	0.933 ± 0.025
x1 = 0.2899	0.9459 ± 0.025
x1 = 0.3525	0.9561 ± 0.025
x1 = 0.4862	0.9809 ± 0.026
x1 = 0.592	0.994 ± 0.026
x1 = 0.689	1.007 ± 0.027
x1 = 0.7728	1.01 ± 0.027
x1 = 0.8194	1.011 ± 0.027
x1 = 0.8719	1.011 ± 0.027
x1 = 0.9315	1.006 ± 0.027

N#CCc1ccccc1 + ClC(Cl)C(Cl)Cl
Details	viscosity [mPa·s]
313.15 K, 101 kPa, x1 = 0.7131	1.645 ± 0.021

C1=CCCCC1 + ClC(Cl)Cl
303.15 K, 101 kPa
Details	viscosity [mPa·s]
x1 = 0.1005	0.62 ± 0.008
x1 = 0.2478	0.604 ± 0.008
x1 = 0.3282	0.595 ± 0.008
x1 = 0.4351	0.585 ± 0.008
x1 = 0.4917	0.581 ± 0.008
x1 = 0.629	0.575 ± 0.007
x1 = 0.7454	0.573 ± 0.007
x1 = 0.8452	0.571 ± 0.007

N#CCc1ccccc1 + ClC=C(Cl)Cl
Details	viscosity [mPa·s]
303.15 K, 101 kPa, x1 = 0.819	1.455 ± 0.019

N#CCc1ccccc1 + ClCCCl
101 kPa
Details	viscosity [mPa·s]
303.15 K, x1 = 0.9705	1.725 ± 0.023
313.15 K, x1 = 0.648	1.165 ± 0.016

CCC(C)CO (stereo not drawn) + O
298.15 K, 101 kPa
Details	viscosity [mPa·s]
x2 = 0.0025	4.797 ± 0.044
x2 = 0.0548	4.447 ± 0.044
x2 = 0.0985	4.284 ± 0.044
x2 = 0.1421	4.163 ± 0.046
x2 = 0.1741	4.101 ± 0.047
x2 = 0.1943	4.07 ± 0.048
x2 = 0.2403	4.025 ± 0.05
x2 = 0.2657	4.011 ± 0.052
x2 = 0.2859	4.01 ± 0.053
x2 = 0.2923	4.005 ± 0.053
x2 = 0.3149	4.005 ± 0.055

CCCC[N+]1(C)CCCC1.N#C[S-] + O
Details	viscosity [mPa·s]
298.15 K, 101 kPa, x1 = 0.9147	91.83 ± 15

CCNC(C)=O + O
298.16 K, 101 kPa
Details	viscosity [mPa·s]
x2 = 0.0826	6.11 ± 0.05
x2 = 0.1593	6.33 ± 0.05
x2 = 0.2575	6.67 ± 0.05
x2 = 0.3475	6.96 ± 0.05
x2 = 0.427	7.14 ± 0.05
x2 = 0.4728	7.18 ± 0.05
x2 = 0.5438	7.12 ± 0.05
x2 = 0.585	6.98 ± 0.05
x2 = 0.7047	6.14 ± 0.05
x2 = 0.7459	5.72 ± 0.05

NCC(=O)NCC(=O)O + O
viscosity
Details	293.15 K	298.15 K	303.15 K	308.15 K	313.15 K	318.15 K	323.15 K
100 kPa, x1 = 0.000887	–	0.9004 ± 0.019 mPa·s	–	0.7285 ± 0.015 mPa·s	0.6622 ± 0.014 mPa·s	0.6045 ± 0.013 mPa·s	–
100 kPa, x1 = 0.00175	–	0.907 ± 0.019 mPa·s	0.8135 ± 0.017 mPa·s	0.7349 ± 0.015 mPa·s	0.6683 ± 0.014 mPa·s	0.6105 ± 0.013 mPa·s	–
100 kPa, x1 = 0.002593	–	0.9129 ± 0.019 mPa·s	0.8194 ± 0.017 mPa·s	0.7408 ± 0.015 mPa·s	0.6742 ± 0.014 mPa·s	0.6162 ± 0.013 mPa·s	–
100 kPa, x1 = 0.003411	–	0.9185 ± 0.019 mPa·s	0.8251 ± 0.017 mPa·s	0.7465 ± 0.016 mPa·s	0.6797 ± 0.014 mPa·s	0.6216 ± 0.013 mPa·s	–
100 kPa, x1 = 0.004207	–	0.9239 ± 0.019 mPa·s	0.8307 ± 0.017 mPa·s	0.752 ± 0.016 mPa·s	0.685 ± 0.014 mPa·s	0.6269 ± 0.013 mPa·s	–
100 kPa, x1 = 0.004983	–	0.9292 ± 0.019 mPa·s	0.836 ± 0.017 mPa·s	0.7573 ± 0.016 mPa·s	0.6904 ± 0.014 mPa·s	0.6322 ± 0.013 mPa·s	–
100 kPa, x1 = 0.005739	–	0.9343 ± 0.019 mPa·s	0.8413 ± 0.017 mPa·s	0.7627 ± 0.016 mPa·s	0.6957 ± 0.015 mPa·s	0.6374 ± 0.013 mPa·s	–
100 kPa, x1 = 0.006476	–	0.9394 ± 0.02 mPa·s	0.8465 ± 0.018 mPa·s	0.7679 ± 0.016 mPa·s	0.7006 ± 0.015 mPa·s	0.6425 ± 0.013 mPa·s	–
101.3 kPa, x1 = 0.002	1.04 ± 0.06 mPa·s and 1.04 ± 0.04 mPa·s	–	0.82 ± 0.05 mPa·s and 0.82 ± 0.03 mPa·s	–	0.67 ± 0.04 mPa·s and 0.67 ± 0.03 mPa·s	–	0.56 ± 0.03 mPa·s and 0.56 ± 0.02 mPa·s
101.3 kPa, x1 = 0.004	1.08 ± 0.07 mPa·s and 1.08 ± 0.04 mPa·s	–	0.85 ± 0.05 mPa·s and 0.85 ± 0.03 mPa·s	–	0.69 ± 0.04 mPa·s and 0.69 ± 0.03 mPa·s	–	0.59 ± 0.04 mPa·s and 0.59 ± 0.02 mPa·s
101.3 kPa, x1 = 0.005	1.1 ± 0.07 mPa·s and 1.1 ± 0.04 mPa·s	–	0.87 ± 0.05 mPa·s and 0.87 ± 0.04 mPa·s	–	0.71 ± 0.04 mPa·s and 0.71 ± 0.03 mPa·s	–	0.6 ± 0.04 mPa·s and 0.6 ± 0.02 mPa·s
101.3 kPa, x1 = 0.007	1.14 ± 0.07 mPa·s and 1.14 ± 0.05 mPa·s	–	0.9 ± 0.05 mPa·s and 0.9 ± 0.04 mPa·s	–	0.74 ± 0.05 mPa·s and 0.74 ± 0.03 mPa·s	–	0.62 ± 0.04 mPa·s and 0.62 ± 0.03 mPa·s
